Tests used:
LIMK2 = LIMK2 (Homo sapiens, UniProt P53671); assay: Western blot of endogenous LIMK2 in HuCCT1 cells; assay type: cell-based
Procedure: HuCCT1 cell line was cultured in Roswell Park Memorial Institute (RPMI) 1640 medium supplemented with GlutaMAX, 10% fetal bovine serum (FBS), and 1% penicillin/streptomycin. The cell line was maintained in an incubator with 5% CO2 at 37 °C. For the treatment, 3 × 10^5 cells were plated and treated with the compounds and DMSO as the control for 6 h. The cells were then lysed using RIPA buffer (50 mM Tris-HCl pH 7.4, 150 mM NaCl, 1% Triton X-100, 1% NaDOC, 0.1% SDS, 1 mM EDTA), freshly supplemented with protease and phosphatase inhibitor cocktails (Sigma-Aldrich, Darmstadt, Germany). After 1 h incubation on ice, the lysates were centrifuged for 30 min at […], and the protein-containing supernatant was collected. The protein concentrations were determined using Protein Assay Dye Reagent Concentrate (Bradford, Bio-Rad, Hercules, CA, USA) and Pre-Diluted Protein Assay Standards: Bovine Serum Albumin (BSA) Set (Thermo Fisher Scientific, Darmstadt, Germany). Then, equal amounts of protein was mixed with Roti-Load 1 dye (Carl Roth, Karlsruhe, Germany) and 4x Laemmli Buffer (Bio-Rad, Hercules, CA, USA), denatured at 95 °C, and run on NuPAGE 4–12% bis-Tris gels (Thermo Fisher Scientific). Proteins were blotted on methanol-activated PVDF Transfer Membranes (Thermo Fisher Scientific) using the wet transfer method with the transfer buffer (Thermo Fisher Scientific) and 20% methanol. Afterward, the membranes were blocked with 5% milk or 3% BSA in 0.1% TBS-T for 1 h at RT and incubated overnight at 4 °C with primary antibodies: GAPDH (catalog no. 2118, Cell Signaling Technology, MA, USA, 1:1000 dilution), LIMK1 (catalog no. 3842, Cell Signaling Technology, 1:1000 dilution), LIMK2 (catalog no. 3845, 1:500 dilution), phospho-Cofilin (catalog no. 3313, Cell Signaling Technology, 1:1000 dilution), Cofilin (catalog no. 5175, Cell Signaling Technology, 1:1000 dilution). Then, the membranes were washed with 0.1% TBS-T and incubated with secondary horseradish-peroxidase (HRP)-conjugated antibody for 2 h (catalog no. 7074, Cell Signaling Technology, 1:3000 dilution). The membranes were washed again with 0.1% TBS-T before they were developed using X-ray films (Fujifilm, Dusseldorf, Germany).

[1] = tested on: CFL1, CFL2 and DSTN phosphorylation; assay: Phospho-proteomics; assay type: cell-based, human; conditions: HuCCT1, 500 nM, 6 h
Procedure: Cells were lysed in SDS-lysis buffer (50 mM Tris, pH 8.5, 2% SDS, 10 mM TCEP, 40 mM chloroacetamide, protease inhibitor cocktail, phosphatase inhibitor) and boiled at 95 °C for 10 min. Proteins were precipitated using methanol-chloroform and resuspended in 8 M urea, 50 mM Tris, pH 8.5. Proteins were digested with 1:50 w/w LysC (Wako Chemicals, cleaves at the carboxylic side of lysine residue) and 1:100 w/w trypsin (Promega, Sequencing-grade) overnight at 37 °C after dilution to a final urea concentration of 1 M using 50 mM Tris pH 8.5. Digested peptides were then acidified (pH 2–3) using trifluoroacetic acid (TFA) and purified using C18 SepPak columns (Waters). […]
Tryptic peptides were analyzed on an Orbitrap Lumos coupled to an easy nLC 1200 (ThermoFisher Scientific) using a 35 cm long, 75 μm ID fused-silica column packed in-house with 1.9 μm C18 particles (Reprosil pur, Dr. Maisch), and kept at 50 °C using an integrated column oven (Sonation). […] MS2 scans for quantification were performed on the 10 most intense MS ions with an isolation window of 0.7 Th. Ions were fragmented using HCD with a normalized collision energy of 35% and analyzed in the Orbitrap with a resolution of 50,000 at m/z 200, scan range of 100–500 m/z, AGC target value of 1 × 10^5, and a maximum injection time of 86 ms. […]
MS raw data were analyzed using MaxQuant (2.4.2.0). […]

Chain of LIMK2 (P53671 whole entry): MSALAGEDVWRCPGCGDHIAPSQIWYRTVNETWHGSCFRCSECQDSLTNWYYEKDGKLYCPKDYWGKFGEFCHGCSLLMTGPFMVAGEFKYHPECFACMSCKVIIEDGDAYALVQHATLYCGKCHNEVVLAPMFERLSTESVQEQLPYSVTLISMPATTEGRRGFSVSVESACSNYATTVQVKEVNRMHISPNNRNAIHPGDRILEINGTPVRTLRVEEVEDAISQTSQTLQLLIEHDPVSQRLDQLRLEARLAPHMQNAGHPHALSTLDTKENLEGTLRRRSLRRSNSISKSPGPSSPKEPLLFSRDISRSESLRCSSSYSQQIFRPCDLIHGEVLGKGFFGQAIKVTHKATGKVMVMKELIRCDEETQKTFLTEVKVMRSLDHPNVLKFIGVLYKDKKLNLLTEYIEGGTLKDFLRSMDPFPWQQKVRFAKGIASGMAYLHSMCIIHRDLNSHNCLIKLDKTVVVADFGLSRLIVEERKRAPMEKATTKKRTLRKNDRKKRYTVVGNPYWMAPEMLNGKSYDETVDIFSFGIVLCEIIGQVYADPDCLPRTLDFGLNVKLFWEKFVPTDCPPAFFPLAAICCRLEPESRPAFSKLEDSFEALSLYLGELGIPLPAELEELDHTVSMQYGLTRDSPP

Cc1c(OCc2cn(CCCCC(=O)Nc3ncc(-c4cc(C(F)F)nn4-c4c(Cl)cccc4Cl)s3)nn2)cccc1N1CCC(=O)NC1=O [22b]
concentration giving near-complete depletion of endogenous LIMK2 (LIMK2; HuCCT1, 6 h, Western blot): 10 nM | LIMK2 degradation (Western blot) (LIMK2; HuCCT1, 6 h treatment): strong LIMK2-selective degradation | phosphorylation of CFL1, CFL2 and DSTN [1]: no significant change in phosphorylation

— publication PMC13184981, “Discovery and Development of a Potent LIMK2 Isoform-Specific Degrader” (ACS Chemical Biology, 2026)
